From patent US20240100473A1, “CARBON DIOXIDE ABSORBER” (MITSUBISHI GAS CHEMICAL COMPANY, INC., priority 2021, published 2024)

Test: Evaluation of absorbed amount of carbon dioxide from air (desiccator)
Conditions: 5 mmol amine compound in desiccator, air 23° C. and 50% RH, initial CO2 about 400 ppm, after 24 hours
Description: (Evaluation of Absorbed Amount of Carbon Dioxide from Air)
A carbon dioxide concentration meter and a petri dish were placed inside an openable desiccator (Internal Dimension: 370 mm×260 mm×272 mm). The amine compound (5 mmol) was then added to the petri dish in the desiccator, a door was immediately closed, and the carbon dioxide concentration in the desiccator was measured over time for 24 hours under an air environment of 23° C. and 50% RH. The initial concentration of carbon dioxide was adjusted to about 400 ppm. Changes of the carbon dioxide concentration in the desiccator 24 hours after the amine compound was placed in the desiccator are shown in Table 1. Here, it is meant that the greater the change of the carbon dioxide concentration in the desiccator is, the greater the amount of the carbon dioxide absorbed by the carbon dioxide absorbent is.

Structure (SMILES)	Evaluation of CO2 Absorbed Amount: Changes of CO2 Concentration, 24h
NCc1cccc(CN)c1 [Comparative Example 1, Meta-xylylenediamine, reference compound]	329 ppm
NCCNCCN [Comparative Example 2, Diethylenetriamine, reference compound]	300 ppm
NCC1CCC(CN)O1 (stereo not drawn) [Example 1, 2,5-bis(aminomethyl)tetrahydrofuran]	300 ppm
NCc1ccc(CN)o1 [Example 2, 2,5-bisaminomethylfuran]	306 ppm
NCC1CCOCC1 [Example 3, 4-aminomethyltetrahydropyran]	389 ppm
NCCN1CCOCC1 [Example 4, 4-(2-aminoethyl)morpholine]	400 ppm
NCc1cccs1 [Example 5, 2-thiophenemethylamine]	249 ppm
NCc1ccco1 [Example 6, Furfurylamine]	188 ppm
Cc1ccc(CN)o1 [Example 7, 5-methylfurfurylamine]	226 ppm

Test: Maximum carbon dioxide release temperature of amine compound (DSC)
Format: physicochemical
Conditions: amine compound with CO2 absorbed from air for 24 h; DSC 23 to 250° C., 10° C./min, nitrogen atmosphere
Description: The amine compound (A) is heated with carbon dioxide absorbed from 23° C. to 250° C. at 10° C./minute of a heating rate, and a temperature at which an endothermic amount associated with desorption of carbon dioxide reaches a maximum is measured, and this temperature is taken as the maximum carbon dioxide release temperature. Here, the amine compound (A) with carbon dioxide absorbed can be prepared, for example, by allowing 5 mmol of the amine compound (A) to stand in the air at 23° C. and 50% RH for 24 hours.
(Maximum Carbon Dioxide (CO2) Release Temperature of Amine Compound)
After the above evaluation of the absorbed amount of carbon dioxide from the air was completed, the amine compound was removed from the desiccator as the amine compound having carbon dioxide absorbed. The DSC measurement was performed on the amine compound with carbon dioxide absorbed as follows, to measure the maximum carbon dioxide release temperature of the amine compound. First, the differential scanning calorimetry was performed on the amine compound using the differential thermogravimetric analyzer (Product Name: DTG-60 produced by Shimadzu Corporation) under the conditions of 23 to 250° C. of a measurement temperature range, 10° C./min of the heating rate, and the nitrogen atmosphere. From the DSC curve obtained thereby, the temperature at which the endothermic amount associated with the desorption of carbon dioxide reached the maximum was calculated, and the temperature thereof was used as the maximum carbon dioxide release temperature of the amine compound.

Maximum CO2 Release Temperature	Structure (SMILES)
135.5 °C	NCc1cccc(CN)c1 [Comparative Example 1, Meta-xylylenediamine, reference compound]
80.3 °C	NCC1CCC(CN)O1 (stereo not drawn) [Example 1, 2,5-bis(aminomethyl)tetrahydrofuran]
85.0 °C	NCc1ccc(CN)o1 [Example 2, 2,5-bisaminomethylfuran]
111.0 °C	NCC1CCOCC1 [Example 3, 4-aminomethyltetrahydropyran]
81.5 °C	NCCN1CCOCC1 [Example 4, 4-(2-aminoethyl)morpholine]
83.6 °C	NCc1cccs1 [Example 5, 2-thiophenemethylamine]
66.7 °C	NCc1ccco1 [Example 6, Furfurylamine]
80.7 °C	Cc1ccc(CN)o1 [Example 7, 5-methylfurfurylamine]

Structure (SMILES)	Maximum CO2 Release Temperature
NCCNCCN [Comparative Example 2, Diethylenetriamine, reference compound]	127.8 °C

Test: Maximum endothermic temperature of amine compound (DSC)
Format: physicochemical
Conditions: DSC 23 to 350° C., 10° C./min, nitrogen atmosphere; volatilization of amine compound
Description: Heating the amine compound (A) from 23° C. to 350° C. at 10° C./minute of the heating rate, measuring a temperature at which an endothermic amount associated with the volatilization of the amine compound (A) reaches a maximum, and letting this temperature be the maximum endothermic temperature of the amine compound (A).
(Maximum Endothermic Temperature of Amine Compound)
DSC measurements were performed on the amine compounds used in Examples and Comparative Examples to measure the maximum endothermic temperature of the amine compounds as follows. First, a differential scanning calorimetry was performed on the amine compounds using a differential thermogravimetric analyzer (Product Name: DTG-60 produced by Shimadzu Corporation) under conditions of 23 to 350° C. of a measurement temperature range, 10° C./min of a heating rate, and a nitrogen atmosphere. From the DSC curve obtained thereby, the temperature at which the endothermic amount associated with the volatilization of the amine compound reached the maximum was calculated, and the temperature thereof was used as the maximum endothermic temperature of the amine compound.

Maximum Endothermic Temperature	Structure (SMILES)
183.5 °C	NCc1cccc(CN)c1 [Comparative Example 1, Meta-xylylenediamine, reference compound]
155.9 °C	NCC1CCC(CN)O1 (stereo not drawn) [Example 1, 2,5-bis(aminomethyl)tetrahydrofuran]
154.2 °C	NCc1ccc(CN)o1 [Example 2, 2,5-bisaminomethylfuran]
127.4 °C	NCC1CCOCC1 [Example 3, 4-aminomethyltetrahydropyran]
145.0 °C	NCCN1CCOCC1 [Example 4, 4-(2-aminoethyl)morpholine]
140.1 °C	NCc1cccs1 [Example 5, 2-thiophenemethylamine]
92.4 °C	NCc1ccco1 [Example 6, Furfurylamine]
115.3 °C	Cc1ccc(CN)o1 [Example 7, 5-methylfurfurylamine]

Structure (SMILES)	Maximum Endothermic Temperature
NCCNCCN [Comparative Example 2, Diethylenetriamine, reference compound]	127.8 °C

Test: Amine value of amine compound (JIS K7237-1995 titration)
Format: physicochemical
Conditions: 0.1 g in 20 mL acetic acid, titrated with 0.1 N perchloric acid-acetic acid
Description: The amine value can be measured by the following method in accordance with JIS K7237-1995. • (1) Dissolving 0.1 g of the amine compound (A) in 20 mL of acetic acid. • (2) Calculating the amine value by titrating the solution obtained in the above (1) with the 0.1 N perchloric acid-acetic acid solution using the automatic potentiometric titrator (for example, AT-610 produced by Kyoto Electronics Manufacturing Co., Ltd.).
(Amine Value of Amine Compound)
The amine value was measured by the following measurement method in accordance with JIS K7237-1995. • (1) Dissolving 0.1 g of the amine compound in 20 mL of the acetic acid. • (2) Calculating the amine value by titrating the solution obtained in the above (1) with the 0.1 N perchloric acid-acetic acid solution using the automatic potentiometric titrator (AT-610 produced by Kyoto Electronics Manufacturing Co., Ltd.).

Amine Value	Structure (SMILES)
824 mgKOH/g	NCc1cccc(CN)c1 [Comparative Example 1, Meta-xylylenediamine, reference compound]
862 mgKOH/g	NCC1CCC(CN)O1 (stereo not drawn) [Example 1, 2,5-bis(aminomethyl)tetrahydrofuran]
890 mgKOH/g	NCc1ccc(CN)o1 [Example 2, 2,5-bisaminomethylfuran]
487 mgKOH/g	NCC1CCOCC1 [Example 3, 4-aminomethyltetrahydropyran]
862 mgKOH/g	NCCN1CCOCC1 [Example 4, 4-(2-aminoethyl)morpholine]
496 mgKOH/g	NCc1cccs1 [Example 5, 2-thiophenemethylamine]
578 mgKOH/g	NCc1ccco1 [Example 6, Furfurylamine]
505 mgKOH/g	Cc1ccc(CN)o1 [Example 7, 5-methylfurfurylamine]

Structure (SMILES)	Amine Value
NCCNCCN [Comparative Example 2, Diethylenetriamine, reference compound]	1632 mgKOH/g

Test: Acid dissociation constant (pKa) by acid-base titration
Format: physicochemical
Conditions: 0.2 g in 30 mL purified water, 25±2° C.
Description: In the present embodiments, the acid dissociation constant of the amine compound (A) is a value obtained by the following measurement method based on an acid-base titration method. • (1) Dissolving 0.2 g of the amine compound (A) in 30 mL of purified water. • (2) Calculating the acid dissociation constant (pKa) by titrating the solution obtained in the above (1) with 0.1 N perchloric acid-acetic acid solution using an automatic potentiometric titrator (for example, AT-610 produced by Kyoto Electronics Manufacturing Co., Ltd.).
(Acid Dissociation Constant (pKa) of Amine Compound)
The acid dissociation constant of the amine compound was determined by the following method. • (1) Dissolving 0.2 g of the amine compound in 30 mL of the purified water. • (2) Calculating the acid dissociation constant (pKa) by titrating the solution obtained in the above (1) with the 0.1 N perchloric acid-acetic acid solution using the automatic potentiometric titrator (AT-610 produced by Kyoto Electronics Manufacturing Co., Ltd.).
Still, let the temperature at the time of measurement be 25±2° C.

pKa	Structure (SMILES)
9.5	NCc1cccc(CN)c1 [Comparative Example 1, Meta-xylylenediamine, reference compound]
9.4	NCC1CCC(CN)O1 (stereo not drawn) [Example 1, 2,5-bis(aminomethyl)tetrahydrofuran]
9	NCc1ccc(CN)o1 [Example 2, 2,5-bisaminomethylfuran]
10	NCC1CCOCC1 [Example 3, 4-aminomethyltetrahydropyran]
10.1	NCCN1CCOCC1 [Example 4, 4-(2-aminoethyl)morpholine]
9.5	NCc1cccs1 [Example 5, 2-thiophenemethylamine]
9.2	NCc1ccco1 [Example 6, Furfurylamine]
9.2	Cc1ccc(CN)o1 [Example 7, 5-methylfurfurylamine]

Structure (SMILES)	pKa
NCCNCCN [Comparative Example 2, Diethylenetriamine, reference compound]	9.7
